The text below walks through data of patent US4022884A, “Gardimycin and process for producing same” (Gruppo Lepetit S.p.A., priority 1974, dated 1977).

For data set [1], the system named is Streptococcus viridans. Put plainly: Minimal inhibitory concentration, clinically isolated strains (Table 2). The format is cell-based. From the text: (§1) Another favorable characteristic of the antibiotic substance gardimycin is that it is active against clinically isolated Streptococcus strains.
Data set [2] concerns Streptococcus haemolyticus. The description is as above. The format is cell-based.
Excerpt: as §1

For data set [3], the system named is Streptococcus haemolyticus C 203. Briefly: Experimental infection in mice. In kind it is in vivo.
Data set [4] can be described thus: Antibacterial in vivo activity, general statement. As to conditions: in words. From the text:
(§2) Metabolite A, metabolite B (hereafter referred to as gardimycin) as well as its salts with alkali and alkali earth metals and metabolite C show good antibacterial in vitro and in vivo activities.

Data set [5] deals with pathogenic bacteria of the genus Diplococcus and Streptococcus. Briefly: In vivo activity against experimental infections in mice, general statement. The following applies: in words.
Data set [6] deals with Diplococcus pneumoniae UC 41. Briefly: Experimental infection in mice. In kind it is in vivo.
Data set [7] in a line: Toxicity (LD50). The format is in vivo.
The subject of data set [8] is Clostridium perfringens ISS 30543. The format is cell-based.
Data set [9] is described as follows: Antibacterial in vitro activity, general statement. In kind it is cell-based. The following applies: in words.
Excerpt: as §2

In data set [10] the test system is Neisseria gonorrheae ATCC 9826. Put plainly: In vitro minimal inhibitory concentration (Table 1). In kind it is cell-based.
Excerpt: as §2

Data set [11] concerns Micrococcus flavus ATCC 10240. The data set is described as above. The format is cell-based.
Excerpt: as §2

Data set [12] deals with Diplococcus pneumoniae UC 41. Described as above. In kind it is cell-based.
Excerpt: as §2

Data set [13] has as its system Streptococcus haemolyticus C 203. The data set is described as above. In kind it is cell-based.
Excerpt: as §2

The subject of data set [14] is Staphylococcus aureus ATCC 538. Described as above. The format is cell-based.
Excerpt: as §2

The subject of data set [15] is Streptococcus faecalis ATCC 10541. The description is as above. The format is cell-based.
Excerpt: as §2

Data set [16] concerns clinically isolated Streptococcus strains. Briefly: Activity against clinically isolated Streptococcus strains, general statement. In kind it is cell-based. As to conditions: in words.
Excerpt: as §1

For the substance gardimycin, the Minimal inhibitory concentration in data set [1] (clinically isolated strain 2057) was 5 µg/mL; in data set [1] (clinically isolated strain 2085), 2 µg/mL; in data set [2] (clinically isolated strain 2078), 1 µg/mL; in data set [2] (clinically isolated strain 2087), 1 µg/mL; in data set [8], 2 µg/mL; in data set [10], 20 µg/mL. Besides, the Minimal inhibitory concentration in [11] came out at 1 µg/mL; in [12], 50 µg/mL; in [13], 2 µg/mL; in [14], 50 µg/mL; in data set [15], 50 µg/mL. Also, the ED50 (in general, the dose that gives a 50% effect, or the effect in half of the subjects) amounted to 0.75 mg/kg in data set [3] and 30 mg/kg in data set [6]. Moreover, the “antibacterial in vivo activity” value in data set [4] is given as “good”. Moreover, the “in vivo activity against experimental infections” value in [5] was “very interesting in vivo activity”. For the same substance, the figures for the LD50 result in data set [7] (i.p.) and in data set [7] (i.v.) were “higher than 1000 mg/Kg” and “about 2000 mg/Kg”, respectively. Besides, the toxicity entry in [7] (in words) is “very low toxicity”. Further, the “antibacterial in vitro activity” value in [9] is “good”. In addition, the “activity against clinically isolated Streptococcus strains” value in data set [16] is recorded as “active”.
